Data as given in patent US12384753B2, “17-beta-hydroxysteroid dehydrogenase type 13 inhibitors and methods of use thereof” (Enanta Pharmaceuticals, Inc., priority 2021, dated 2025).

Target: Recombinant human HSD17B13 (Homo sapiens (Human), UniProt Q7Z5P4)
Test: HSD17B13 rapid-fire mass spectrometry assay (RF/MS assay)
Type: biochemical
Settings: inhibition of HSD17B13; LTB4 10 μM, NAD+ 0.5 mM, RT 3 h; IC50 ranges A-E
Outline: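 Sf9-expressed human HSD17B13 (80 nM) with 10 μM LTB4 and 0.5 mM NAD+, incubated with compound (0–100 μM) for 3 h at RT in Tris pH 7.5/BSA/Tween-20. After formic acid quench, LTB4 conversion to 12-oxo-LTB4 measured by RapidFire MS/MS. IC50 from normalised residual activity, duplicates.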

Recombinant human HSD17B13, sequence (Q7Z5P4 20-300): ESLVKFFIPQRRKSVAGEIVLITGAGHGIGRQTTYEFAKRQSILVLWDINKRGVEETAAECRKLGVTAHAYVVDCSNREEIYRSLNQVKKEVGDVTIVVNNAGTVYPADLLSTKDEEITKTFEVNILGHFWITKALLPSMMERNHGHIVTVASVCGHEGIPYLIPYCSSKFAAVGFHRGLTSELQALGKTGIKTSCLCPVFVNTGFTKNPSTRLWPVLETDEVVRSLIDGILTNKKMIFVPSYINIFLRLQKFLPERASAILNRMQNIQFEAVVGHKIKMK

SMILES	IC50 [nM]
CCC[C@H]1CC[C@H](C2CC=C(c3ccc(-c4ncc(S(=O)(=O)Nc5ccc(C(=O)O)cc5OC)s4)cc3)CC2)CC1 (stereo partly drawn) [Example 709]	1000 to 100000
COCCOc1c(C2CCC(C)(C)CC2)ccc(-c2nc(S(=O)(=O)Nc3cc(F)c(C(=O)O)cc3OC)cs2)c1F [Example 580]	100 to 500
CC[C@H]1CC[C@H](c2ccc(-c3nc(S(=O)(=O)Nc4ccc5c(O)cccc5c4OC)cs3)cc2)CC1 [Example 648]	1000 to 100000
COc1cc(C(=O)O)ccc1NS(=O)(=O)c1csc(C#Cc2cccc(Cl)c2)n1 [Example 197]	< 100
O=C(O)c1cc(NS(=O)(=O)c2cnc(-c3ccc(F)cc3)s2)n(-c2ccccc2)n1 [Example 92]	1000 to 100000
COc1cc(C(=O)O)c(F)cc1NS(=O)(=O)c1csc(-c2ccc(C3CCC(C)(C)CC3)cc2OC(F)(F)F)n1 [Example 543]	< 100
O=C(O)c1ccc(NS(=O)(=O)c2csc(-c3ccc(O)cc3)n2)cc1 [Example 63]	500 to 1000
COc1cc(C(=O)O)ccc1NS(=O)(=O)c1cccc(-c2ccc(C3CCCCC3)cc2)c1F [Example 436]	< 100
COc1cc(C(=O)O)c(F)cc1NS(=O)(=O)c1ccc2sc(-c3ccc(C4CCCCC4)cc3C(F)(F)F)nc2c1 [Example 703]	500 to 1000
O=C(O)c1ccc2c(c1)CCN2S(=O)(=O)c1ccc(F)cc1 [Example 12]	> 100000
COc1cc(C(=O)O)c(F)cc1NS(=O)(=O)c1csc(-c2ccc(NC3CCC(C)(C)CC3)cc2)n1 [Example 631]	< 100
COc1cc(C(=O)O)c(F)cc1NS(=O)(=O)c1cccc(-c2ccc([C@H]3CC[C@@H](C(C)(C)C)CC3)cc2)c1F [Example 500]	< 100
COc1cc(C(=O)O)c(F)cc1NS(=O)(=O)c1coc(-c2ccc(C3CCC(OC(=O)N4CCOCC4)CC3)cc2)n1 (stereo not drawn) [Example 630]	< 100
COc1cc(C(=O)O)ccc1NS(=O)(=O)c1cccc(-c2ccc(C3CCC(F)(F)CC3)cc2)c1F [Example 476]	100 to 500
COc1cc(C(=O)O)ccc1NS(=O)(=O)c1ccc(C#CC2CCCC2)c(F)c1 [Example 335, 4-((4-(cyclopentylethynyl)-3-fluorophenyl)sulfonamido)-3-methoxybenzoic acid]	< 100
COc1cc(C(=O)O)c(F)cc1NS(=O)(=O)c1csc(-c2ccc([C@H]3CC[C@@H](C(C)(C)C)CC3)cc2)n1 [Example 761]	100 to 500

Second part, the compound after the results:

IC50 [nM]	SMILES
< 100	COc1cc(C(=O)O)c(F)cc1NS(=O)(=O)c1csc(-c2ccc(C3CCC(C)(C)CC3)cc2C(F)F)n1 [Example 591]
< 100	COc1cc(C(=O)O)c(F)cc1NS(=O)(=O)c1csc(-c2ccc(C3CCC(C)(C)CC3)c3[nH]ncc23)n1 [Example 541]
1000 to 100000	COc1cc(C(=O)O)ccc1NS(=O)(=O)c1coc2ccccc12 [Example 138]
< 100	COc1cc(C(=O)O)c(F)cc1NS(=O)(=O)c1csc(-c2ccc(C3CCC(C(F)(F)F)CC3)c(OC(C)C)c2F)n1 (stereo not drawn) [Example 812]
500 to 1000	COc1cc(C(=O)O)ccc1NS(=O)(=O)c1ccc(-c2ccc(-c3ccc(O)cc3)cc2)s1 [Example 207]
100 to 500	COc1cc(C(=O)O)ccc1NS(=O)(=O)c1cnc(-c2ccc(-c3ccc(C(F)(F)C(F)(F)F)cc3)cc2)s1 [Example 714]
500 to 1000	COc1cc(C(=O)O)ccc1NS(=O)(=O)c1csc(-c2cccc3ccccc23)n1 [Example 151]
100 to 500	COc1cc(C(=O)O)ccc1NS(=O)(=O)c1csc(-c2cccc(C)c2C)n1 [Example 156]
1000 to 100000	COc1cc(P(=O)(O)O)ccc1NS(=O)(=O)c1csc(-c2ccc(C3CCCCC3)cc2)n1 [Example 484, (4-((2-(4-cyclohexylphenyl)thiazole)-4-sulfonamido)-3-methoxyphenyl)phosphonic acid]
1000 to 100000	COc1cc(-c2ccc(C(=O)O)cc2OC)ccc1NS(=O)(=O)c1cnc(-c2ccc(F)cc2)s1 [Example 390]
100 to 500	COc1cc(C(=O)O)ccc1NS(=O)(=O)c1csc(C#Cc2cccnc2)n1 [Example 215]
